Measured values: US20090286829A1, “QUINOLYNYLMETHYLIMIDIZOLES AS THERAPEUTIC AGENTS” (ALLERGAN, INC., priority 2008, published 2009)

How the values were obtained:
Type in all cases: cell-based
Alpha 2A = biological target: T1, Alpha 2A (Homo sapiens, UniProt P08913); assay: RSAT assay, alpha 2A receptor; settings: ratio of maximal effect to that of standard agonist brimonidine
T1 construct: expressed in transfected cells; host or cells: NIH-3T3
T1 sequence (P08913 1-465): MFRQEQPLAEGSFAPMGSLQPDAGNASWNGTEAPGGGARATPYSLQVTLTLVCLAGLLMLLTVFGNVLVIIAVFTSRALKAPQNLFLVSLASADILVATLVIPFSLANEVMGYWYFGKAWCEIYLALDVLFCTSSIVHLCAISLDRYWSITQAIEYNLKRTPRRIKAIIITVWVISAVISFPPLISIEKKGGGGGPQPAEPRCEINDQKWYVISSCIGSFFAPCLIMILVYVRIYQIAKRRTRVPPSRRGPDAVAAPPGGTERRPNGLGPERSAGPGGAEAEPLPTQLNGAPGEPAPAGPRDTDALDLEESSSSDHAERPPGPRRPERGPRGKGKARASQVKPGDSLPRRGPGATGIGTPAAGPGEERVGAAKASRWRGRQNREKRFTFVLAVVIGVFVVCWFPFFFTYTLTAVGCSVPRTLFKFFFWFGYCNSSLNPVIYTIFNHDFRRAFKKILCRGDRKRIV
Procedure: (§1) The RSAT assay measures a receptor-mediated loss of contact inhibition that results in selective proliferation of receptor-containing cells in a mixed population of confluent cells. The increase in cell number is assessed with an appropriate transfected marker gene such as -galactosidase, the activity of which can be easily measured in a 96-well format. Receptors that activate the G protein, Gq, elicit this response. Alpha2 receptors, which normally couple to Gi, activate the RSAT response when coexpressed with a hybrid Gq protein that has a Gi receptor recognition domain, called Gq/i5.
(§2) NIH-3T3 cells are plated at a density of 2×10^6 cells in 15 cm dishes and maintained in Dulbecco's modified Eagle's medium supplemented with 10% calf serum. […] After washing with phosphate-buffered saline, β-galactosidase enzyme activity is determined by adding 200 μl of the chromogenic substrate (consisting of 3.5 mM o-nitrophenyl-β-D-galactopyranoside and 0.5% nonidet P-40 in phosphate buffered saline), incubating overnight at 30° C. and measuring optical density at 420 nm. The absorbance is a measure of enzyme activity, which depends on cell number and reflects a receptor-mediated cell proliferation. The efficacy or intrinsic activity is calculated as a ratio of the maximal effect of the drug to the maximal effect of a standard full agonist for each receptor subtype. […]

Alpha 1A = biological target: T2, Alpha 1A (Homo sapiens, UniProt P35348); assay: RSAT assay, alpha 1A receptor
T2 construct: expressed in transfected cells; host or cells: NIH-3T3
T2 sequence (P35348 1-466): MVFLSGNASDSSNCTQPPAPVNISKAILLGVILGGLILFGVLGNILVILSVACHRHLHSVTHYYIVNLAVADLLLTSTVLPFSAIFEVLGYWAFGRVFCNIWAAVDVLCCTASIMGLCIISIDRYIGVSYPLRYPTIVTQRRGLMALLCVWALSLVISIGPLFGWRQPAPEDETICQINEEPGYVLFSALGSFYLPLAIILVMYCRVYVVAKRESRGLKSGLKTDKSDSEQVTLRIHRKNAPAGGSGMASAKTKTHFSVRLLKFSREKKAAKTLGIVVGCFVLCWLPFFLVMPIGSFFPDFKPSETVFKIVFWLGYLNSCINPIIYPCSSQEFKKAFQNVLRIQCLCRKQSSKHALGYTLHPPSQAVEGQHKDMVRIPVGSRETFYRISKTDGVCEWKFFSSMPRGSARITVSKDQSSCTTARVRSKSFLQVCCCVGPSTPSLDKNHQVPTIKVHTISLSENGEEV
Procedure: as §1, §2

Alpha 2B = biological target: T3, Alpha 2B (Homo sapiens, UniProt P18089); assay: RSAT assay, alpha 2B receptor; settings: for Alpha 2B (IA) intrinsic activity: RSAT, ratio of maximal effect to that of standard agonist brimonidine
T3 construct: expressed in transfected cells; host or cells: NIH-3T3
T3 sequence (P18089 1-450): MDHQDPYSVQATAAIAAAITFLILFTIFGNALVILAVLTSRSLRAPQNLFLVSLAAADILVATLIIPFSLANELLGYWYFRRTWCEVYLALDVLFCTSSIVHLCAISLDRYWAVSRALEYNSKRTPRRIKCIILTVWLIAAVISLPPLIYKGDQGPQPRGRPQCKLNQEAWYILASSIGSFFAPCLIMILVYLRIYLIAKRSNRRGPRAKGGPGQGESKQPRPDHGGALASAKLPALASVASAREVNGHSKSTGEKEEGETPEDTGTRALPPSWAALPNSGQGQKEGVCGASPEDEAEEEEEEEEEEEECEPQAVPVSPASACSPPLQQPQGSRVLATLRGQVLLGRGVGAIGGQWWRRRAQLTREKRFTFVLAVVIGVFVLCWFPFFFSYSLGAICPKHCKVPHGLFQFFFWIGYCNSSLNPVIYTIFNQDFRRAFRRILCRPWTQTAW
Procedure: as §1
NIH-3T3 cells are plated at a density of 2×10^6 cells in 15 cm dishes and maintained in Dulbecco's modified Eagle's medium supplemented with 10% calf serum. One day later, cells are cotransfected by calcium phosphate precipitation with mammalian expression plasmids encoding p-SV-1-galactosidase (5-10 μg), receptor (1-2 μg) and G protein (1-2 μg). 40 μg salmon sperm DNA may also be included in the transfection mixture. Fresh media is added on the following day and 1-2 days later, cells are harvested and frozen in 50 assay aliquots. Cells are thawed and 100 μl added to 100 μl aliquots of various concentrations of drugs in triplicate in 96-well dishes. Incubations continue 72-96 hr at 37° C. After washing with phosphate-buffered saline, β-galactosidase enzyme activity is determined by adding 200 μl of the chromogenic substrate (consisting of 3.5 mM o-nitrophenyl-β-D-galactopyranoside and 0.5% nonidet P-40 in phosphate buffered saline), incubating overnight at 30° C. and measuring optical density at 420 nm. The absorbance is a measure of enzyme activity, which depends on cell number and reflects a receptor-mediated cell proliferation. The efficacy or intrinsic activity is calculated as a ratio of the maximal effect of the drug to the maximal effect of a standard full agonist for each receptor subtype. Brimonidine, also called UK14304, the chemical structure of which is shown below, is used as the standard agonist for the alpha2A, alpha2B and alpha2C receptors. The EC50 is the concentration at which the drug effect is half of its maximal effect.
EC50 values are nanomolar. NA stands for “not active” at concentrations less than 10 micromolar. IA stands for “intrinsic activity.”

Alpha 2C = biological target: T4, Alpha 2C (Homo sapiens, UniProt P18825); assay: RSAT assay, alpha 2C receptor
T4 construct: expressed in transfected cells; host or cells: NIH-3T3
T4 sequence (P18825 1-462): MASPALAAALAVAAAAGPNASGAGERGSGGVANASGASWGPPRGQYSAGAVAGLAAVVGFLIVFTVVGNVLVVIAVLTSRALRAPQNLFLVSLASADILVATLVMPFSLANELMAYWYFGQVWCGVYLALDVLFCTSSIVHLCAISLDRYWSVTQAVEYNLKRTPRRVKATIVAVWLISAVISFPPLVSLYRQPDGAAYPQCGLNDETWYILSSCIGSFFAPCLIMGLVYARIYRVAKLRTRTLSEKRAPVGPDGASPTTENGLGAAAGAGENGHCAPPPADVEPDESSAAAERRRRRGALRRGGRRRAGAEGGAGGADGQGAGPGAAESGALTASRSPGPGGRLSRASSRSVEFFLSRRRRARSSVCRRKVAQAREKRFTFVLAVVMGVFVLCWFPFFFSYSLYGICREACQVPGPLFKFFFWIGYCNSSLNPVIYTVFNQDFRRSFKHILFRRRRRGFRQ
Procedure: as §1, §2

Cc1[nH]cnc1Cc1ccc2cccnc2c1C [8-methyl-7-((5-methyl-1H-imidazol-4-yl)methyl)quinoline]
Alpha 2A (IA) intrinsic activity (Alpha 2A): 0.43

Cc1[nH]cnc1Cc1cccc2cccnc12 [8-((5-methyl-1H-imidazol-4-yl)methyl)quinoline]
EC50 (Alpha 1A): 1730 nM | Alpha 1A (IA) intrinsic activity (Alpha 1A; RSAT, ratio of maximal effect of drug to maximal effect of standard full agonist): 0.75 | EC50 (Alpha 2B): 117 nM | Alpha 2B (IA) intrinsic activity (Alpha 2B): 0.70

Cc1[nH]cnc1C(C)c1cccc2cccnc12 (stereo not drawn) [8-(1-(5-methyl-1H-imidazol-4-yl)ethyl)quinoline]
EC50 (Alpha 2B): 30 nM | Alpha 2B (IA) intrinsic activity (Alpha 2B): 0.70 | EC50 (Alpha 2C): 3110 nM | Alpha 2C (IA) intrinsic activity (Alpha 2C; RSAT, ratio of maximal effect to that of standard agonist brimonidine): 0.32
